Here are results for 25 compounds from US8901307B2, “Chemical compounds 251” (AstraZeneca AB, priority 2008, dated 2014).

Where a name gives a salt, the structure may show the parent alone.

In one experiment the target is T1, human His-PIM1 [2-313] (Homo sapiens, UniProt P11309).
T1 construct: purified human His-PIM1 [2-313] enzyme; His (N); purchased University of Dundee, Scotland; host or cells: baculovirus system
The experiment is described as follows: PIM1 in-vitro mobility shift assay (Caliper LC3000, FL-Ahx-Bad phosphorylation). In kind it is biochemical. The note with it: 1.5 h; percent inhibition at 0.3 uM compound; read-out: PIM1 % I at 0.3 uM. The procedure, abridged: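 Compound preincubated 20 min at 25 °C with 2.4 nM PIM1, 3.6 µM FL-Ahx-Bad peptide and 240 µM ATP (1.2× mix concentrations). Reaction started with 24 mM MgCl2 mix, run 90 min at 25 °C, EDTA-stopped. Phospho/unphospho peptide separated by microfluidic mobility shift; percent inhibition from ratiometric turnover.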

The target in a further experiment is T2, human His-PIM2 [23-299] (Homo sapiens, UniProt Q9P1W9).
T2 construct: purified human His-PIM2 [23-299] enzyme; His (N); host or cells: E. coli
The experiment is described as follows: PIM2 in-vitro mobility shift assay (Caliper LC3000, FL-Ahx-Bad phosphorylation). In kind it is biochemical. Particulars: 1.5 h; percent inhibition at 0.3 uM compound; read-out: PIM2 % I at 0.3 uM.

T1 sequence (P11309 2-313): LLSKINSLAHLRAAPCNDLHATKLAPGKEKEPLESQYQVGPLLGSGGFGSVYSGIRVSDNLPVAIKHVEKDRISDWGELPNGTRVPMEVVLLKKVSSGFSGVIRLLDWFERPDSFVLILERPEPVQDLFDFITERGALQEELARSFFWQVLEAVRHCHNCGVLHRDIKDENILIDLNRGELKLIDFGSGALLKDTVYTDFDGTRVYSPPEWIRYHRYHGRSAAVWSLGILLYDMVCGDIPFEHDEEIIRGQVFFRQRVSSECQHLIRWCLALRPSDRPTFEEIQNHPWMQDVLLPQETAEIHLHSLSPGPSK
T2 sequence (Q9P1W9 23-299): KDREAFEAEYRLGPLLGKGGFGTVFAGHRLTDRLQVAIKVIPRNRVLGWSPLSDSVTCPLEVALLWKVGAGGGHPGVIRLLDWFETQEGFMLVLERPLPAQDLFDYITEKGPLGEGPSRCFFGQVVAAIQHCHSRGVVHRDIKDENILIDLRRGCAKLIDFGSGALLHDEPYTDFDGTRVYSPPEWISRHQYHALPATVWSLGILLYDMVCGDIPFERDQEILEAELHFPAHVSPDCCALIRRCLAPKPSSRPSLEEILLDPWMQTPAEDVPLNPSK

In the case of `NCCCC(=O)N1CCN(c2ccccc2/C=C2\SC(=O)NC2=O)CC1` [Example 107, (Z)-5-(2-(4-(4-aminobutanoyl)piperazin-1-yl)benzylidene)thiazolidine-2,4-dione hydrochloride], the inhibition at 0.3 µM on human His-PIM1 [2-313] and at human His-PIM2 [23-299] was greater than 95% in each case.

Regarding `N[C@@H]1CCCN(c2ccccc2/C=C2\SC(=O)NC2=O)C1` [Example 122W, (R,Z)-5-(2-(3-aminopiperidin-1-yl)benzylidene)thiazolidine-2,4-dione hydrochloride], the inhibition at 0.3 µM at human His-PIM1 [2-313] and on human His-PIM2 [23-299] was greater than 95% each time.

Consider `NCCC(=O)N1CCN(c2ncccc2/C=C2\SC(=O)NC2=O)CC1` [Example 90, (Z)-5-((2-(4-(3-aminopropanoyl)piperazin-1-yl)pyridin-3-yl)methylene)thiazolidine-2,4-dione trifluoroacetate], for which the results for the inhibition at 0.3 µM at human His-PIM1 [2-313] and at human His-PIM2 [23-299] were 78.2% and 86.3%, respectively.

With `O=C1NC(=O)/C(=C/c2cccc(Cl)c2N2CCCNCC2)S1` [Example 122N, (Z)-5-(3-chloro-2-(1,4-diazepan-1-yl)benzylidene)thiazolidine-2,4-dione hydrochloride], the inhibition at 0.3 µM on human His-PIM1 [2-313] and at human His-PIM2 [23-299] was greater than 95% each time.

On to `NC1CCN(c2c(Cl)cc(C(F)(F)F)cc2/C=C2\SC(=O)NC2=O)CC1` [Example 3], for which the inhibition at 0.3 µM on human His-PIM1 [2-313] is greater than 95%; on human His-PIM2 [23-299] it was 58%.

For `COc1cccc(/C=C2\SC(=O)NC2=O)c1N1CC[C@H](N(C)C)C1` [Example 36, (S,Z)-5-(2-(3-(dimethylamino)pyrrolidin-1-yl)-3-methoxybenzylidene)thiazolidine-2,4-dione], the inhibition at 0.3 µM on human His-PIM1 [2-313] and at human His-PIM2 [23-299] was greater than 95% each time.

As for `O=C1NC(=O)/C(=C/c2ccc3ncccc3c2)S1` [Example 77, (5Z)-5-(quinolin-6-ylmethylene)-1,3-thiazolidine-2,4-dione trifluoroacetate], the inhibition at 0.3 µM was determined as 51.2% on human His-PIM1 [2-313] and 22.7% at human His-PIM2 [23-299].

Take `NCCCN[C@@H]1CCCN(c2c(Cl)cccc2/C=C2\SC(=O)NC2=O)C1` [Example 129B]: the inhibition at 0.3 µM on human His-PIM1 [2-313] and on human His-PIM2 [23-299] was greater than 95% each time.

In the case of `COc1cc(/C=C2\SC(=O)NC2=O)c(N2CCC(CN)C2)cc1OC` (centres unmarked) [Example 99, (Z)-5-(2-(3-(aminomethyl)pyrrolidin-1-yl)-4,5-dimethoxybenzylidene)thiazolidine-2,4-dione hydrochloride], the inhibition at 0.3 µM at human His-PIM1 [2-313] and at human His-PIM2 [23-299] was greater than 95% throughout.

For `CN(C)CCN(C)c1ccccc1/C=C1\SC(=O)NC1=O` [Example 47, (5Z)-5-{2-[[2-(dimethylamino)ethyl](methyl)amino]benzylidene}-1,3-thiazolidine-2,4-dione], the inhibition at 0.3 µM on human His-PIM1 [2-313] turned out to be 50%; at human His-PIM2 [23-299] it was 26.3%.

Turning to `O=C1NC(=O)/C(=C/c2cn[nH]c2)S1` [Example 71, (Z)-5-((1H-pyrazol-4-yl)methylene)thiazolidine-2,4-dione], the inhibition at 0.3 µM at human His-PIM1 [2-313] and on human His-PIM2 [23-299] was less than 5% throughout.

On to `N[C@H]1CCN(c2ccc(C(=O)O)cc2/C=C2\SC(=O)NC2=O)C1` [Example 122AH, (S,Z)-4-(3-aminopyrrolidin-1-yl)-3-((2,4-dioxothiazolidin-5-ylidene)methyl)benzoic acid], for which the inhibition at 0.3 µM on human His-PIM1 [2-313] turned out to be 19%; at human His-PIM2 [23-299], 14%.

Turning to `CC(C)Oc1cccc(/C=C2\SC(=O)NC2=O)c1N1CC[C@H](N)C1` [Example 122P, (S,Z)-5-(2-(3-aminopyrrolidin-1-yl)-3-isopropoxybenzylidene)thiazolidine-2,4-dione hydrochloride], the inhibition at 0.3 µM at human His-PIM1 [2-313] and on human His-PIM2 [23-299] was greater than 95% in each case.

Regarding `O=C1NC(=O)/C(=C/c2cc(C(F)(F)F)cc(Cl)c2N2CCN(Cc3ccncc3)CC2)S1` [Example 17], the inhibition at 0.3 µM was 29.8% at human His-PIM1 [2-313] and less than 5% on human His-PIM2 [23-299].

Regarding `COc1ccc(N2CCC(N(C)C)C2)c(/C=C2\SC(=O)NC2=O)c1` (centres unmarked) [Example 43, (5Z)-5-{2-[3-(dimethylamino)pyrrolidin-1-yl]-5-methoxybenzylidene}-1,3-thiazolidine-2,4-dione], the inhibition at 0.3 µM at human His-PIM1 [2-313] was 55.4%; at human His-PIM2 [23-299], 14.7%.

For the compound `NCCCCC(=O)N1CCCN(c2ccccc2/C=C2\SC(=O)NC2=O)CC1` [Example 103, (Z)-5-(2-(4-(5-aminopentanoyl)-1,4-diazepan-1-yl)benzylidene)thiazolidine-2,4-dione hydrochloride], the inhibition at 0.3 µM at human His-PIM1 [2-313] was greater than 95%; on human His-PIM2 [23-299], 88.7%.

`NS(=O)(=O)CCCC(=O)N[C@H]1CCN(c2c(Cl)cccc2/C=C2\SC(=O)NC2=O)C1` [Example 143]: the inhibition at 0.3 µM on human His-PIM1 [2-313] was determined as 85.9%; at human His-PIM2 [23-299], 49.8%.

Turning to `N[C@@H]1CCCN(c2c(/C=C3\SC(=O)NC3=O)cccc2OCC(F)(F)F)C1` [Example 122Y, (R,Z)-5-(2-(3-aminopiperidin-1-yl)-3-(2,2,2-trifluoroethoxy)benzylidene)thiazolidine-2,4-dione hydrochloride], the inhibition at 0.3 µM on human His-PIM1 [2-313] and on human His-PIM2 [23-299] was greater than 95% in each case.

As to `O=C1NC(=O)/C(=C/c2ccccc2N2CCNCC2)S1` [Example 115, (5Z)-5-(2-piperazin-1-ylbenzylidene)-1,3-thiazolidine-2,4-dione hydrochloride], the results for the inhibition at 0.3 µM at human His-PIM1 [2-313] and at human His-PIM2 [23-299] were 93.3% and 76.1%, respectively.

Regarding `COc1cc(/C=C2\SC(=O)NC2=O)c(N2CC[C@@H](N)C2)cc1OC` [Example 100, (R,Z)-5-(2-(3-aminopyrrolidin-1-yl)-4,5-dimethoxybenzylidene)thiazolidine-2,4-dione hydrochloride], the inhibition at 0.3 µM at human His-PIM1 [2-313] was found to be 93%; on human His-PIM2 [23-299], 93.9%.

`COc1cccc(/C=C2\SC(=O)NC2=O)c1N1CCC[C@@H](N)C1` [Example 122E, (R,Z)-5-(2-(3-aminopiperidin-1-yl)-3-methoxybenzylidene)thiazolidine-2,4-dione hydrochloride]: the inhibition at 0.3 µM at human His-PIM1 [2-313] and at human His-PIM2 [23-299] was greater than 95% in each case.

As for `O=C1NC(=O)/C(=C/c2ccccc2N2CCN(C(=O)C3CCCNC3)CC2)S1` (centres unmarked) [Example 116, 5-(2-(4-(piperidine-3-carbonyl)piperazin-1-yl)benzylidene)thiazolidine-2,4-dione hydrochloride], the inhibition at 0.3 µM on human His-PIM1 [2-313] and at human His-PIM2 [23-299] was greater than 95% throughout.

On to `O=C1NC(=O)/C(=C/c2ccccc2OCCO)S1` [Example 60, (Z)-5-(2-(2-hydroxyethoxy)benzylidene)thiazolidine-2,4-dione], for which the inhibition at 0.3 µM is 35.4% on human His-PIM1 [2-313] and 11.3% at human His-PIM2 [23-299].

`CC1CCN(c2c(Cl)cccc2/C=C2\SC(=O)NC2=O)CC1N` (centres unmarked) [Example 122V, (Z)-5-(2-(3-amino-4-mnethylpiperidin-1-yl)-3-chlorobenzylidene)thiazolidine-2,4-dione hydrochloride]: the inhibition at 0.3 µM at human His-PIM1 [2-313] and on human His-PIM2 [23-299] was greater than 95% each time.

For the compound `O=C1NC(=O)/C(=C/c2cccc(Cl)c2N2CCNCC2)S1` [Example 98, (Z)-5-(3-chloro-2-(piperazin-1-yl)benzylidene)thiazolidine-2,4-dione hydrochloride], the inhibition at 0.3 µM at human His-PIM1 [2-313] was greater than 95%; at human His-PIM2 [23-299], 81.4%.
